According to PMC4685510, “A Cell Biologist’s Field Guide to Aurora Kinase Inhibitors” (Frontiers in Oncology, 2015):
Read-outs that look alike come from different tables or passages of the source.

Tests used:
Assay in all cases: biochemical
Type in all cases: biochemical
[1] = target: 363 human kinases (including Aurora A/B/C) (Homo sapiens, UniProt P06493); conditions: for remaining activity at 0.1 µM: 100 nM; for remaining activity at 0.1 µM / remaining activity at 0.5 µM: read-out: % Enzyme Activity (relative to DMSO controls); for % Enzyme Activity (relative to DMSO controls) / remaining activity at 0.5 µM: 500 nM
Text: (§1) However, the Aurora A/B selectivity ratios derived from our in vitro and in vivo data can be compared to prioritize inhibitors.

[2] = target: 363 human kinases (including Aurora A/B/C) (Homo sapiens, UniProt Q8N568); conditions: DCAMKL2, [ATP] 100 µM; for remaining activity at 0.1 µM: 100 nM; for remaining activity at 0.1 µM / remaining activity at 0.5 µM: read-out: % Enzyme Activity (relative to DMSO controls)
Text: as §1

[3] = target: 363 human kinases (including Aurora A/B/C) (Homo sapiens, UniProt P30291); conditions: WEE1; for remaining activity at 0.1 µM: 100 nM; for remaining activity at 0.1 µM / remaining activity at 0.5 µM: read-out: % Enzyme Activity (relative to DMSO controls)
Text: as §1

[4] = target: T1, 363 human kinases (including Aurora A/B/C) (Homo sapiens, UniProt Q99683); conditions: ASK1/MAP3K5, [ATP] 100 µM; for remaining activity at 0.1 µM: 100 nM; for remaining activity at 0.1 µM / remaining activity at 0.5 µM: read-out: % Enzyme Activity (relative to DMSO controls)
T1 sequence (Q99683 1-1374): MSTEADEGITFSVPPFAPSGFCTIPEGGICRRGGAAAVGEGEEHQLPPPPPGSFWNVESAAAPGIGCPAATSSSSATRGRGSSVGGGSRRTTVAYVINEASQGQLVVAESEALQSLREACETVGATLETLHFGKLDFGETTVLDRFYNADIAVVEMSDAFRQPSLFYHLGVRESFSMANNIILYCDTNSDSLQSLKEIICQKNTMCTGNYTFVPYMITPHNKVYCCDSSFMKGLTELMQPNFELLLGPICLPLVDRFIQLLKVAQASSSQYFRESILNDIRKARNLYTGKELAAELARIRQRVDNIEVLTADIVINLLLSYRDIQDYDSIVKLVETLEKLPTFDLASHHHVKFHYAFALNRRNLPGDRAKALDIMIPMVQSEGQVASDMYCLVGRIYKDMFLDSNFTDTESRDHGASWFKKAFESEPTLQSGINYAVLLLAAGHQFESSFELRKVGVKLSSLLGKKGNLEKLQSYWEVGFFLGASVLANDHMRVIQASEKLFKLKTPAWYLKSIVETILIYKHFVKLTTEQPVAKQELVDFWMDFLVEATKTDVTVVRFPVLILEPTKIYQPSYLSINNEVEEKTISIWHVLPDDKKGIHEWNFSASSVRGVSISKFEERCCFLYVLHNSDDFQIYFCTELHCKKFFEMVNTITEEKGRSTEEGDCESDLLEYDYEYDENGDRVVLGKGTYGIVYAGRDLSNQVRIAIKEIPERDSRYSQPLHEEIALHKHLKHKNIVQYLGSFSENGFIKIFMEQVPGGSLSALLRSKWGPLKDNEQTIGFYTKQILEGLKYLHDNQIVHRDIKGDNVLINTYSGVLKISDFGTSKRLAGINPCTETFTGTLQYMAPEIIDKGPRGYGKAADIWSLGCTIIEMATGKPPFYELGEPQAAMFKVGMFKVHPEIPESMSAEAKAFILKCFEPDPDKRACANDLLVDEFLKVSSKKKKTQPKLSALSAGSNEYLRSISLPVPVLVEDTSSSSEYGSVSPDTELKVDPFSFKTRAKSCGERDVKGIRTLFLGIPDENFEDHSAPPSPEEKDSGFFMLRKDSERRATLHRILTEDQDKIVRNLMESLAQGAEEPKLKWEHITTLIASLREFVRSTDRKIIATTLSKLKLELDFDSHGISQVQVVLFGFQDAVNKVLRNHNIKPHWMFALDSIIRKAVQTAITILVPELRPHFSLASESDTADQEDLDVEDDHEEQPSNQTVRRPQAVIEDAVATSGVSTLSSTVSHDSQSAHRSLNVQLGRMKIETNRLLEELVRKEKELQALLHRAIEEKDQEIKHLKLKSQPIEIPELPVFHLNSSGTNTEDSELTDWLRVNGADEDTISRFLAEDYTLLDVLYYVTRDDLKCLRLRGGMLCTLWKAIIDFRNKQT
Text: as §1

[5] = target: T2, 363 human kinases (including Aurora A/B/C) (Homo sapiens, UniProt Q08881); conditions: ITK; for remaining activity at 0.1 µM: 100 nM; for remaining activity at 0.1 µM / remaining activity at 0.5 µM: read-out: % Enzyme Activity (relative to DMSO controls)
T2 sequence (Q08881 1-620): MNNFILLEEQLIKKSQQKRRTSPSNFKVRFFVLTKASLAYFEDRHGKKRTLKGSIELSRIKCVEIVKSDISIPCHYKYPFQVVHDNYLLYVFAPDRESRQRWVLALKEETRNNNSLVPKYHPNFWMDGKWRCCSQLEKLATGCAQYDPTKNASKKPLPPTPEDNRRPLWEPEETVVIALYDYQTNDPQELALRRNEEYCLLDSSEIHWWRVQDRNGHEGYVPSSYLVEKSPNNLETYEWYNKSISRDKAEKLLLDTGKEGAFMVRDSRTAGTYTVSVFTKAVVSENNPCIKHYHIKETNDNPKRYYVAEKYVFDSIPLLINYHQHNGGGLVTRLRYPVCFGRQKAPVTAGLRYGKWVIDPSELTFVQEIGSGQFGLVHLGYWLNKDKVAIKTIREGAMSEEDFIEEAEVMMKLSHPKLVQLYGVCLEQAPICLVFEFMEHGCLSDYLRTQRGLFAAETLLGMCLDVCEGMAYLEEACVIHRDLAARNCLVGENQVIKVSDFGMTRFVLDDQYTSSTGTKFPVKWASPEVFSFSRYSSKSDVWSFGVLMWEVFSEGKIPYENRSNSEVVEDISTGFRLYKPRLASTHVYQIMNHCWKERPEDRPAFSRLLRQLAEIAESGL
Text: as §1

[6] = target: 363 human kinases (including Aurora A/B/C) (Homo sapiens, UniProt P31751); conditions: AKT2, [ATP] 100 µM; for remaining activity at 0.1 µM: 100 nM; for remaining activity at 0.1 µM / remaining activity at 0.5 µM: read-out: % Enzyme Activity (relative to DMSO controls)
Text: as §1

[7] = target: 363 human kinases (including Aurora A/B/C) (Homo sapiens, UniProt Q9Y572); conditions: RIPK3; for remaining activity at 0.1 µM: 100 nM; for remaining activity at 0.1 µM / remaining activity at 0.5 µM: read-out: % Enzyme Activity (relative to DMSO controls)
Text: as §1

[8] = target: 363 human kinases (including Aurora A/B/C) (Homo sapiens, UniProt Q92918); conditions: HPK1/MAP4K1; for remaining activity at 0.1 µM: 100 nM; for remaining activity at 0.1 µM / remaining activity at 0.5 µM: read-out: % Enzyme Activity (relative to DMSO controls)
Text: as §1

[9] = target: 363 human kinases (including Aurora A/B/C) (Homo sapiens, UniProt Q6IQ55); conditions: TTBK2; for remaining activity at 0.1 µM: 100 nM; for remaining activity at 0.1 µM / remaining activity at 0.5 µM: read-out: % Enzyme Activity (relative to DMSO controls)
Text: as §1

[10] = target: 363 human kinases (including Aurora A/B/C) (Homo sapiens, UniProt Q13627); conditions: DYRK1/DYRK1A, [ATP] 50 µM; for remaining activity at 0.1 µM: 100 nM; for remaining activity at 0.1 µM / remaining activity at 0.5 µM: read-out: % Enzyme Activity (relative to DMSO controls)
Text: as §1

Chain of 363 human kinases (including Aurora A/B/C) (Homo sapiens, UniProt Q9Y572) (Q9Y572 whole entry): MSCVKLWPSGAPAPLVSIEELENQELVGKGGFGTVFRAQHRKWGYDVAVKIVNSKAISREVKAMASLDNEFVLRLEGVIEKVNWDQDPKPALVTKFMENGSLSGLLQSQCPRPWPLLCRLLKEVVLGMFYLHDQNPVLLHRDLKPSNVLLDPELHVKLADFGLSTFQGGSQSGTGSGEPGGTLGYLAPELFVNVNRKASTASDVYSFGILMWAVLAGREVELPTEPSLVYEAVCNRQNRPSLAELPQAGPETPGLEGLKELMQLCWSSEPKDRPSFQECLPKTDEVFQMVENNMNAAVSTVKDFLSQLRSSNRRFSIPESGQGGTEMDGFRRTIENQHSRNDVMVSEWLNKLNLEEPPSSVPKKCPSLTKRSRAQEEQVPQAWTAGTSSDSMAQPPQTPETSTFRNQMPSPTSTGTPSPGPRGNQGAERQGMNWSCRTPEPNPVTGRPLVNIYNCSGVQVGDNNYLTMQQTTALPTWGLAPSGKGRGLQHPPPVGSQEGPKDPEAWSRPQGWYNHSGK
Chain of 363 human kinases (including Aurora A/B/C) (Homo sapiens, UniProt Q92918) (Q92918 whole entry): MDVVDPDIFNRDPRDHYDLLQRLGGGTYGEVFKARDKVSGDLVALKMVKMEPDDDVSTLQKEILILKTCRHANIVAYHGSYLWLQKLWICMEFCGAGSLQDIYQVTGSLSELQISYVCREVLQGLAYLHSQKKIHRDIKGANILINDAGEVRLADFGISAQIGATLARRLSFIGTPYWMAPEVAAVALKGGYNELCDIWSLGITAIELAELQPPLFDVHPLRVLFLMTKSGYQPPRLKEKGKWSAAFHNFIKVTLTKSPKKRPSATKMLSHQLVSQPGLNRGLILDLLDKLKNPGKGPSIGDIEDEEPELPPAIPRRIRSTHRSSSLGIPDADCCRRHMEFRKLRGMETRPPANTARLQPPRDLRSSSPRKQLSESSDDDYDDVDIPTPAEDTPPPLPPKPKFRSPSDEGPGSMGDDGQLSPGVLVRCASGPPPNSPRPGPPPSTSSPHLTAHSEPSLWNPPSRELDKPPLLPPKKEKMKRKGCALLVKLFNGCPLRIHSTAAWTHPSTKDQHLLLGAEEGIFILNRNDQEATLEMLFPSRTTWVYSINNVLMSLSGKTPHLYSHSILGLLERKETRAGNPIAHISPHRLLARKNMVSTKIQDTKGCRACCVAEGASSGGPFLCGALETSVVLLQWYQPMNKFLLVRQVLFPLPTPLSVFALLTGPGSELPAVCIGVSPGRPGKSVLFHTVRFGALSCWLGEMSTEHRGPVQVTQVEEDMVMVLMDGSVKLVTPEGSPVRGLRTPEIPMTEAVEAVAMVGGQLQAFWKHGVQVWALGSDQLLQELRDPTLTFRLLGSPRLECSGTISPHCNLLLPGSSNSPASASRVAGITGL
Chain of 363 human kinases (including Aurora A/B/C) (Homo sapiens, UniProt Q6IQ55) (Q6IQ55 whole entry): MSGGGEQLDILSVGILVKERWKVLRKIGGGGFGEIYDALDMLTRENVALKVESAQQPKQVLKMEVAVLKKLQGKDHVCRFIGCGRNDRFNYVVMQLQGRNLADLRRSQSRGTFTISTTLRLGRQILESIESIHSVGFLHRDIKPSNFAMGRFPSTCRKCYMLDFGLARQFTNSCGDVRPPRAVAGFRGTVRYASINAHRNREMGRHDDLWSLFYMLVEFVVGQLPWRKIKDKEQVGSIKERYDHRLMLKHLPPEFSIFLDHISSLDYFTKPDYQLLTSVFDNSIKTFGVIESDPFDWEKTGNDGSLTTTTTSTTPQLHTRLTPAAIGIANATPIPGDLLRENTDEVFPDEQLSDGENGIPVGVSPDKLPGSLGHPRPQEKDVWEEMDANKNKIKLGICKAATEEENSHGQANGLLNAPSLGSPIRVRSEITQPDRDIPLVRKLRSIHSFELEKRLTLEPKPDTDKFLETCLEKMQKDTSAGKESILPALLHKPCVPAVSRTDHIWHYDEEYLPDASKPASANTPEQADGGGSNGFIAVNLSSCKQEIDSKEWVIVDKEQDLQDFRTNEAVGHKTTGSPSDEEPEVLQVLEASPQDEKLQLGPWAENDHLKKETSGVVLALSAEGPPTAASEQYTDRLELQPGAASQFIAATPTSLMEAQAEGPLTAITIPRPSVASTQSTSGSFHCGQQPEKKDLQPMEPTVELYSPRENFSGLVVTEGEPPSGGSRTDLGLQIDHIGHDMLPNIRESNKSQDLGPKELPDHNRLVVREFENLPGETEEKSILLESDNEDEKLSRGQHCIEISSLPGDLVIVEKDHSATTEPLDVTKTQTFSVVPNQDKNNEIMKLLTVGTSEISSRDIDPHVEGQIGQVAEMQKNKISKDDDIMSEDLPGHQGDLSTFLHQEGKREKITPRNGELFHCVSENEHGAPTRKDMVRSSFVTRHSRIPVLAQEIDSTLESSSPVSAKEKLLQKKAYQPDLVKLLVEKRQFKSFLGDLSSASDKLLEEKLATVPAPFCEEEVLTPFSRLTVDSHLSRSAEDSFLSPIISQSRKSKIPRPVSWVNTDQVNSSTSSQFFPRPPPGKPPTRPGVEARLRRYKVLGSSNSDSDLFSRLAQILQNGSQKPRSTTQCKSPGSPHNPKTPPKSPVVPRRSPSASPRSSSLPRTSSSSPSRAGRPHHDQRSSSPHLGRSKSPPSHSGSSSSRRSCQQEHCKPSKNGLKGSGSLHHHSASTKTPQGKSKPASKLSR
Chain of 363 human kinases (including Aurora A/B/C) (Homo sapiens, UniProt P06493) (P06493 whole entry): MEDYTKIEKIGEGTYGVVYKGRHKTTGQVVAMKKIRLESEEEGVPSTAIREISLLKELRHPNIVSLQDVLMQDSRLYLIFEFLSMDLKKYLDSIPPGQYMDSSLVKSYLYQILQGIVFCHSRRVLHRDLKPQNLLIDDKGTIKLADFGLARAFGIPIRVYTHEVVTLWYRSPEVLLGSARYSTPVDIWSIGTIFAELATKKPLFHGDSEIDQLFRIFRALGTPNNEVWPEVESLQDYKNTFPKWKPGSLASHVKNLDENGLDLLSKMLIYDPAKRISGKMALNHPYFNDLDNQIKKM
Chain of 363 human kinases (including Aurora A/B/C) (Homo sapiens, UniProt P30291) (P30291 whole entry): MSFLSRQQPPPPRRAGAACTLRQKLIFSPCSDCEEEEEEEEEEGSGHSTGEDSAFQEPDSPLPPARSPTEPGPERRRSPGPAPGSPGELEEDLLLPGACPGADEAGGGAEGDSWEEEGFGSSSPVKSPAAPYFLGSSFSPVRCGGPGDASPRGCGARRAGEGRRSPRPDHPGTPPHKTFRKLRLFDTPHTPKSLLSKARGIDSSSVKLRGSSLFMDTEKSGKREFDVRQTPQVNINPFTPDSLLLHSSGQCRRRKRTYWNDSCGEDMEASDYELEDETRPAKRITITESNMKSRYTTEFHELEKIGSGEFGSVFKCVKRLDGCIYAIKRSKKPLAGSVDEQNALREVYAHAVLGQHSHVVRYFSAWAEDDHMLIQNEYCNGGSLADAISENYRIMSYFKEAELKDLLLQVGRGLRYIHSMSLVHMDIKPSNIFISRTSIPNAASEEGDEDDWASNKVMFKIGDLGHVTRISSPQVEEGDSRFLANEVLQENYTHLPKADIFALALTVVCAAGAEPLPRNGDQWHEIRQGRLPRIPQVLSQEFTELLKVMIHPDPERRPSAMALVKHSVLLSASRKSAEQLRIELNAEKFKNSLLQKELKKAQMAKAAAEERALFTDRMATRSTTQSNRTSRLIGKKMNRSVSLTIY
Chain of 363 human kinases (including Aurora A/B/C) (Homo sapiens, UniProt P31751) (P31751 whole entry): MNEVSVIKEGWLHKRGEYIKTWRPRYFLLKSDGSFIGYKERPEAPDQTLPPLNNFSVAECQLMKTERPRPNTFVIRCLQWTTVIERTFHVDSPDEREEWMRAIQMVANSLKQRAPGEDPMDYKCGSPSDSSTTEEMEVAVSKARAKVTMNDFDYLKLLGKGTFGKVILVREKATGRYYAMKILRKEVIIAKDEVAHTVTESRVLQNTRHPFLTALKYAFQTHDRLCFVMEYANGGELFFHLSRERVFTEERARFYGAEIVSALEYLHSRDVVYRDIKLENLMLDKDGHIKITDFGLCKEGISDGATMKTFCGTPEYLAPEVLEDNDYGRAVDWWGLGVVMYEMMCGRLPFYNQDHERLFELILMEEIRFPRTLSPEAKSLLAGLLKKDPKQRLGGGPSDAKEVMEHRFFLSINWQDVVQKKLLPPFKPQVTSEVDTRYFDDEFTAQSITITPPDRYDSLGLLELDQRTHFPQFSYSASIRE
Chain of 363 human kinases (including Aurora A/B/C) (Homo sapiens, UniProt Q8N568) (Q8N568 whole entry): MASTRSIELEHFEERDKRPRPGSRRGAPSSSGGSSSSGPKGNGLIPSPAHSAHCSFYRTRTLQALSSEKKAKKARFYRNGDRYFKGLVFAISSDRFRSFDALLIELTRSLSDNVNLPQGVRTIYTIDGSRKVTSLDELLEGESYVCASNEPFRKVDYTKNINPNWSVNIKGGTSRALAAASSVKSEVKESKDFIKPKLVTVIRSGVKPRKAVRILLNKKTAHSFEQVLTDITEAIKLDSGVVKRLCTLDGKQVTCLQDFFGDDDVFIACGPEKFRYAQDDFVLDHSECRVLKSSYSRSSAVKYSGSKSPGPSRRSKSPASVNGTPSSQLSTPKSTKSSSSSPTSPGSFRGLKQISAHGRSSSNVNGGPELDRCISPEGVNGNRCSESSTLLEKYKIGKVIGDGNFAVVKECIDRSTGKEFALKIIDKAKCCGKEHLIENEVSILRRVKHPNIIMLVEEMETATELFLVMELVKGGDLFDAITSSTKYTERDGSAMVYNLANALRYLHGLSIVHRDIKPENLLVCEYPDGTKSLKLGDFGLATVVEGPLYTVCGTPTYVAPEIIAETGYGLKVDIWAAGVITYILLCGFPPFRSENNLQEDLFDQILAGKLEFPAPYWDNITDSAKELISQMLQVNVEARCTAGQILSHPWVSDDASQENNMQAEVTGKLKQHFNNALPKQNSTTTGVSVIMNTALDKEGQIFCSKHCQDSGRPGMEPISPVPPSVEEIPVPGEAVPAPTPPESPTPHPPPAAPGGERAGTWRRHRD

Structure (SMILES)	remaining activity at 0.1 µM ([1]; CDK1/cyclin A, [ATP] 10 µM) [%]	remaining activity at 0.1 µM ([1]; CDK1/cyclin B, [ATP] 20 µM) [%]	remaining activity at 0.1 µM ([1]; CDK1/cyclin E, [ATP] 20 µM) [%]	remaining activity at 0.1 µM [2] [%]	remaining activity at 0.1 µM [3] [%]	remaining activity at 0.1 µM [4] [%]	remaining activity at 0.1 µM [5] [%]	remaining activity at 0.1 µM [6] [%]	remaining activity at 0.1 µM [7] [%]	remaining activity at 0.1 µM [8] [%]	remaining activity at 0.1 µM [9] [%]	remaining activity at 0.1 µM [10] [%]	remaining activity at 0.5 µM ([1]; CDK1/cyclin A, [ATP] 10 µM) [%]	remaining activity at 0.5 µM ([1]; CDK1/cyclin B, [ATP] 20 µM) [%]	remaining activity at 0.5 µM ([1]; CDK1/cyclin E, [ATP] 20 µM) [%]	remaining activity at 0.5 µM ([2]; 500 nM) [%]	remaining activity at 0.5 µM ([3]; 500 nM) [%]	remaining activity at 0.5 µM ([4]; 500 nM) [%]	remaining activity at 0.5 µM ([5]; 500 nM) [%]	remaining activity at 0.5 µM ([6]; 500 nM) [%]	also measured
CCn1cc(-c2ccnc3[nH]c(-c4cccc(CN(C)C)c4)cc23)c(-c2ccc(NC(=O)N(C)C)cc2)n1 [GSK1070916]	106	84.6	100	91.5	97	79.6	77.7	95.8	88.3	109	119	97.5	–	–	–	–	–	–	–	–	–
O=C(c1cccc(Cl)c1F)N1CCN(Cc2cccc(Nc3nccs3)n2)CC1 [MK-8745]	–	–	–	–	–	–	–	–	–	–	–	–	86.8	79.4	94.9	96	105	78.7	104	96.8	% Enzyme Activity (relative to DMSO controls) ([1]; CDK1/cyclin A, [ATP] 10 µM): 86.34%; % Enzyme Activity (relative to DMSO controls) ([1]; CDK1/cyclin B, [ATP] 20 µM): 78.80%; % Enzyme Activity (relative to DMSO controls) ([1]; CDK1/cyclin E, [ATP] 20 µM): 93.92%; % Enzyme Activity (relative to DMSO controls) ([2]; 500 nM): 95.95%; % Enzyme Activity (relative to DMSO controls) ([3]; 500 nM): 99.94%; % Enzyme Activity (relative to DMSO controls) ([4]; 500 nM): 78.24%; % Enzyme Activity (relative to DMSO controls) ([5]; 500 nM): 102.90%; % Enzyme Activity (relative to DMSO controls) ([6]; 500 nM): 96.21%; % Enzyme Activity (relative to DMSO controls) ([7]; 500 nM): 90.81%; remaining activity at 0.5 µM ([7]; 500 nM): 94.8%; % Enzyme Activity (relative to DMSO controls) ([8]; 500 nM): 81.94%; remaining activity at 0.5 µM ([8]; 500 nM): 87.3%; % Enzyme Activity (relative to DMSO controls) ([9]; 500 nM): 109.64%; remaining activity at 0.5 µM ([9]; 500 nM): 110%; % Enzyme Activity (relative to DMSO controls) ([10]; 500 nM): 93.95%; remaining activity at 0.5 µM ([10]; 500 nM): 96.7%
O=C(O)[C@]1(Cc2cccc(Nc3nccs3)n2)CC[C@@H](Oc2cccc(Cl)c2F)CC1 [MK-5108]	92.7	95.3	101	98.2	106	85.6	89	94.5	122	105	99.8	100	76.5	64	84.6	96.3	93.4	73.8	46.3	107	remaining activity at 0.5 µM ([7]; 500 nM): 87.7%; remaining activity at 0.5 µM ([8]; 500 nM): 82.1%; remaining activity at 0.5 µM ([9]; 500 nM): 111%; remaining activity at 0.5 µM ([10]; 500 nM): 89.7%
